Legend:
[1] = system: P-gp (MDR1); assay: MDR1-MDCK Efflux Ratio Assay; type: in vitro ADME; conditions: dog, MDCK-MDR1, pH 7.4, MDR1-MDCK cells, 2 hr, pH 7.4; read-out: MDR1-MDCK Efflux Ratio (B-A/A-B)
Protocol: MDR1-MDCK cell monolayers were grown to confluence on microporous polyester membranes in 96-well Corning insert plates. The permeability assay buffer was Hanks' Balanced Salt Solution containing 10 mM HEPES at pH of 7.4. Loperamide (1 μM) was used as a positive control P-gp substrate. Propranolol and Bestatin (1 μM) were used as high and low permeability comparators, respectively. Test compounds or positive control P-gp substrate/permeability comprators were added to respective apical and basolateral chambers for bidirectional assessment of permeability. Receiver buffer (transport buffer supplemented with 1% bovine serum albumin) was added to respective receiver chambers. MDR1-MDCK cells were incubated with test compounds at 37° C. with 5% CO2 for 2 hr. Samples were collected from the donor chamber at both 0 and 120 minutes, and from the receiver chamber at 120 minutes. Test and control compound concentrations were determined using LC-MS/MS analysis. Each determination was performed in triplicate. The apparent permeability (Papp), efflux ratio and mass balance (percent recovery) were calculated as follows: [formula] where: dCr/dt is the cumulative concentration in the receiver compartment versus time in μM s^−1 Vr is the volume of the receiver compartment in cm^3 Vd is the volume of the donor compartment in cm^3 A is the area of the insert (0.143 cm^2 for 96-well insert) CE is the estimated experimental concentration (Time=0) of the dosing solution Cr^final is the concentration of the receiver at the end of the incubation period Cd^final is the concentration of the donor at the end of the incubation period.

[2] = biological target: Recombinant full length human OGA enzyme (Homo sapiens (Human), UniProt O60502); assay: OGA Enzyme Inhibition Biochemical Assay; conditions: 1 nM OGA, 100 μM 4-MUGlcNAc, pH 6.4
Sequence of Recombinant full length human OGA enzyme (O60502 whole entry): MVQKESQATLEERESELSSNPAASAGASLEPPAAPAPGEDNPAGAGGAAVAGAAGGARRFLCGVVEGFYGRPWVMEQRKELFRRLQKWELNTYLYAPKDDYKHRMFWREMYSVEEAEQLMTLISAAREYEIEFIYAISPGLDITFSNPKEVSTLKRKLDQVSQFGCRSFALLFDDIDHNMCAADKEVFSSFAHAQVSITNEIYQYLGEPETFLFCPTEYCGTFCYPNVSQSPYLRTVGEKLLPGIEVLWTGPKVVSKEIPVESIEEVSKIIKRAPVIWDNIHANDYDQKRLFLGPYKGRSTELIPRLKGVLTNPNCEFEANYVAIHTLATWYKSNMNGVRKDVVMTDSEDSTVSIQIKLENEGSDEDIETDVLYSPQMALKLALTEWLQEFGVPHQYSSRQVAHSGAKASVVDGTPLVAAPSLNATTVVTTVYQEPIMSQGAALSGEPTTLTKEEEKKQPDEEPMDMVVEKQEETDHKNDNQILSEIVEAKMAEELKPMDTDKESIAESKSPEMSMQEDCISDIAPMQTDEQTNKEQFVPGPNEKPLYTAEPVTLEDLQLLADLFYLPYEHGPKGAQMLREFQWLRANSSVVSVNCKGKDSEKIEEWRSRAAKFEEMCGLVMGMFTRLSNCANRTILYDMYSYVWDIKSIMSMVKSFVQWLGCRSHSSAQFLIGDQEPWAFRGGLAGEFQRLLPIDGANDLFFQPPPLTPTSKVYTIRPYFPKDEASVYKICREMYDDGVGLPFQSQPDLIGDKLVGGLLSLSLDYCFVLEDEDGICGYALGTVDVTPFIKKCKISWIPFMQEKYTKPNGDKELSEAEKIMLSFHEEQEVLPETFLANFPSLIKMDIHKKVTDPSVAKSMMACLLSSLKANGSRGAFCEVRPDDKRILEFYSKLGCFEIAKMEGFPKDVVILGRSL
Protocol: Recombinant full length human OGA enzyme was purchased from Origene. 4-MUGlcNAc substrate was purchased from Sigma. All other reagents were purchased from Sigma or Fisher. Assay buffer consists of the McIlvaine buffer system, pH 6.4 (0.2M Na2HPO4 mixed with 0.1M citric acid) and 0.01% BSA. […] Reactions were incubated for 90 minutes at room temperature and quenched with 40 μl of 3M glycine, pH 10 and read on a Perkin Elmer Envision plate reader (Ex: 355 nm/Em: 460 nm). Compounds were tested with a 10-point dose-response starting from 20 μM with a 4-fold dilution. Data was fit using GraphPad Prism using a 4-parameter fit with variable slope.

[3] = Rat Liver Microsome Stability Assay; type: in vitro ADME; conditions: rat liver microsomes, 1 uM compound
[4] = biological target: OGA (S400 O-GLCNAC), HEK-293T cells transfected with Tau-V5 (Homo sapiens (Human), UniProt O60502); assay: Cellular OGA-Tau MSD Assay; type: cell-based
Sequence of OGA (S400 O-GLCNAC), HEK-293T cells transfected with Tau-V5 (O60502 whole entry): as above
Protocol: HEK-293T cells were transfected with […] and Tau-V5 plasmids using Lipofectamine and grown overnight. Next day, the cells were collected and re-plated at 1×10^5 cells per well in 96 well plates. Cells were incubated for 4 hr at 37° C., before compounds were added at 1 uM, with 3-fold dilutions in a 10-point titration. Cell plates were incubated with compounds overnight at 37° C. The next day media was removed from wells by gentle aspiration and 120 ul of 1× Cell Lysis buffer mixed with protease and phosphatase cocktail added to each well. A freeze thaw was performed at -80° C., then mixed before transferring 50 ul to MSD plates coated with V5-tag antibody to capture Tau. MSD Plates were incubated overnight at 4° C., on a plate shaker. The following day, plates were washed and incubated with Tau-[…]-GlcNAc antibody for 2 hr and then developed with rabbit Sulfo-tag antibody. Final read out was carried out on an MSD 600 reader. The data was analyzed using Graph Pad or Genedata, the data was normalized and % activity versus log of compound concentration was plotted. The IC50 values were obtained from a 4 parameter fit.

[5] = HEK-293T cells, Tau-S400-GlcNAc MSD readout

| Structure (SMILES) | efflux ratio at 2 h [1] | IC50 [2] [nM] | RLM % Qh (%) [3] [%] | IC50 [4, 5] [nM] | IC50 ([4]; repeated assay, value marked with asterisk (*)) [nM] |
| --- | --- | --- | --- | --- | --- |
| CC(=O)Nc1ncc(CN2C[C@H](Oc3ccccn3)C[C@@H]2C)s1 [Example 1-14, N-(5-(((2S,4R)-2-methyl-4-(pyridin-2-yloxy)pyrrolidin-1-yl)methyl)thiazol-2-yl)acetamide] | 2.9 | 1.3 | 68 | 5 | – |
| CO[C@H]1C[C@H](Oc2cc(O[C@@H]3C[C@H](C)N(Cc4cnc(NC(C)=O)s4)C3)ncn2)C1 [Example 1-120, N-(5-(((2S,4R)-4-((6-((1r,3R)-3-methoxycyclobutoxy)pyrimidin-4-yl)oxy)-2-methylpyrrolidin-1-yl)methyl)thiazol-2-yl)acetamide] | 10.3 | < 1 | 64 | 2 | – |
| CC(=O)Nc1nc(F)c(CN2C[C@H](Oc3cc(C)ncc3C)C[C@@H]2C)s1 [Example 1-107, N-(5-(((2S,4R)-4-((2,5-dimethylpyridin-4-yl)oxy)-2-methylpyrrolidin-1-yl)methyl)-4-fluorothiazol-2-yl)acetamide] | 17.2 | 1.7 | 58 | – | – |
| CC(=O)Nc1ncc(CN2C[C@H](Oc3cc(OC4CN(C)C4)ncn3)C[C@@H]2C)s1 [Example 1-125, N-(5-(((2S,4R)-2-methyl-4-((6-((1-methylazetidin-3-yl)oxy)pyrimidin-4-yl)oxy)pyrrolidin-1-yl)methyl)thiazol-2-yl)acetamide] | 1 | 1.4 | 54 | – | – |
| CC(=O)Nc1nc(F)c(CN2C[C@H](Oc3ncc(C)nc3C)C[C@@H]2C)s1 [Example 1-106, N-(5-(((2S,4R)-4-((3,5-dimethylpyrazin-2-yl)oxy)-2-methylpyrrolidin-1-yl)methyl)-4-fluorothiazol-2-yl)acetamide] | 4.6 | 2.4 | 86 | – | – |
| CC(=O)Nc1ncc(CN2C[C@H](Oc3ncc(C)nc3C)C[C@@H]2C)s1 [Example 1-81, N-(5-(((2S,4R)-4-((3,5-dimethylpyrazin-2-yl)oxy)-2-methylpyrrolidin-1-yl)methyl)thiazol-2-yl)acetamide] | 7.3 | 8.4 | 74 | – | – |
| CC(=O)Nc1ncc(CN2C[C@H](Oc3cc(OC4CCC4)ncn3)C[C@@H]2C)s1 [Example 1-121, N-(5-(((2S,4R)-4-((6-cyclobutoxypyrimidin-4-yl)oxy)-2-methylpyrrolidin-1-yl)methyl)thiazol-2-yl)acetamide] | – | < 1 | – | 3 | – |
| COc1cc(O[C@H]2C[C@H](C)N(Cc3sc(NC(C)=O)nc3F)C2)ncn1 [Example 1-30, N-(4-fluoro-5-(((2S,4S)-4-((6-methoxypyrimidin-4-yl)oxy)-2-methylpyrrolidin-1-yl)methyl)thiazol-2-yl)acetamide] | – | 15 | – | 21 | – |
| COc1cc(O[C@@H]2CCN(Cc3cnc(NC(C)=O)s3)C2)ncn1 [Example 1-37, (R)—N-(5-((3-((6-methoxypyrimidin-4-yl)oxy)pyrrolidin-1-yl)methyl)thiazol-2-yl)acetamide] | – | 36 | – | 27 | – |
| COc1cc(O[C@@H]2C[C@H](C)N(Cc3sc(NC(C)=O)nc3F)C2)ncn1 [Example 1-22, N-(4-Fluoro-5-(((2S,4R)-4-((6-methoxypyrimidin-4-yl)oxy)-2-methylpyrrolidin-1-yl)methyl)thiazol-2-yl)acetamide] | – | < 1 | – | 2 | – |
| CC(=O)Nc1ncc(CN2C[C@H](Oc3ccc(F)cn3)CC[C@@H]2C)s1 [Example 1-4, N-(5-(((2S,5R)-5-((5-fluoropyridin-2-yl)oxy)-2-methylpiperidin-1-yl)methyl)thiazol-2-yl)acetamide] | – | 1.2 | – | 6 | – |

More lines, now with the values ahead:

| efflux ratio at 2 h [1] | IC50 [2] [nM] | RLM % Qh (%) [3] [%] | IC50 [4, 5] [nM] | IC50 ([4]; repeated assay, value marked with asterisk (*)) [nM] | Structure (SMILES) |
| --- | --- | --- | --- | --- | --- |
| 21.8 | < 1 | 91 | – | – | CC(=O)Nc1nc(F)c(CN2C[C@@H](Oc3cc(C)nc(C)c3)CC[C@@H]2C)s1 [Example 1-56, N-(5-(((2S,5S)-5-((2,6-dimethylpyridin-4-yl)oxy)-2-methylpiperidin-1-yl)methyl)-4-fluorothiazol-2-yl)acetamide] |
| 2.1 | < 1 | 32 | 3 | – | COCCOc1cc(O[C@@H]2C[C@H](C)N(Cc3cnc(NC(C)=O)s3)C2)ncn1 [Example 1-122, N-(5-(((2S,4R)-4-((6-(2-methoxyethoxy)pyrimidin-4-yl)oxy)-2-methylpyrrolidin-1-yl)methyl)thiazol-2-yl)acetamide] |
| 19.6 | < 1 | 55 | 1 | – | CC(=O)Nc1ncc(CN2C[C@@H](Oc3ccc(C)nc3)C[C@H]2C)s1 (stereo in doubt) [Example 1-116, N-(5-(((2R,4S)-2-methyl-4-((6-methylpyridin-3-yl)oxy)pyrrolidin-1-yl)methyl)thiazol-2-yl)acetamide] |
| 4.3 | < 1 | 92 | 2 | – | COc1cc(O[C@@H]2CC[C@H](C)N(Cc3sc(NC(C)=O)nc3F)C2)ncn1 [Example 1-35, N-(4-fluoro-5-(((2S,5R)-5-((6-methoxypyrimidin-4-yl)oxy)-2-methylpiperidin-1-yl)methyl)thiazol-2-yl)acetamide] |
| 2.2 | < 1 | 95 | 2 | – | CC(=O)Nc1ncc(CN2C[C@H](Oc3ccc(F)c(C)n3)C[C@@H]2C)s1 [Example 1-15, N-(5-(((2S,4R)-4-((5-fluoro-6-methylpyridin-2-yl)oxy)-2-methylpyrrolidin-1-yl)methyl)thiazol-2-yl)acetamide] |
| 3.4 | < 1 | 79 | 2 | – | CC(=O)Nc1nc(F)c(CN2C[C@H](Oc3cnc(C)cn3)C[C@@H]2C)s1 [Example 1-108, N-(4-fluoro-5-(((2S,4R)-2-methyl-4-((5-methylpyrazin-2-yl)oxy)pyrrolidin-1-yl)methyl)thiazol-2-yl)acetamide] |
| 17.8 | < 1 | 58 | 1 | – | CC(=O)Nc1ncc(CN2C[C@H](Oc3cc(N(C)C)ncn3)C[C@@H]2C)s1 [Example 1-131, N-(5-(((2S,4R)-4-((6-(dimethylamino)pyrimidin-4-yl)oxy)-2-methylpyrrolidin-1-yl)methyl)thiazol-2-yl)acetamide] |
| – | < 1 | 58 | 10 | – | CC(=O)Nc1ncc(CN2C[C@H](Oc3cc(OCC(F)(F)F)ncn3)C[C@@H]2C)s1 [Example 1-77] |
| 3.8 | < 1 | – | 7 | 8 | CC(=O)Nc1ncc(CN2C[C@H](Oc3cc(Cl)ncn3)C[C@@H]2C)s1 [Example 1-21, N-(5-(((2S,4R)-4-((6-chloropyrimidin-4-yl)oxy)-2-methylpyrrolidin-1-yl)methyl)thiazol-2-yl)acetamide] |
| – | < 1 | – | 4 | – | CC(=O)Nc1ncc(CN2C[C@@H](Oc3cc(C)nc(C)c3)CC[C@@H]2C)s1 [Example 1-66, N-(5-(((2S,5S)-5-((2,6-dimethylpyridin-4-yl)oxy)-2-methylpiperidin-1-yl)methyl)thiazol-2-yl)acetamide] |

From patent publication US20240308995A1, “O-GLYCOPROTEIN-2-ACETAMIDO-2-DEOXY-3-D-GLUCOPYRANOSIDASE INHIBITORS” (BIOGEN MA INC., priority 2018, published 2024)
